The nature of data set [1]: Body weight and fasting plasma parameters in diabetic and hypercortisolemic rats. Format: in vivo, rat. On the procedure:
(§1) All animal procedures were performed in accordance with the NIH Guidance for the Care and Use of Laboratory Animals. The current study used, respectively the GK and Dexamethasone-treated rats as models for diabetes and hypercortisolemia. Dexamethasone was administered subcutaneously at a dose of 2.5 μg/kg body weight in the morning (8:00 AM) and in the evening (8:00 PM) for a duration of four weeks before wounding and this form of therapy continued during the course of healing. […] Weight and age-matched female Wistar rats (Kuwait University breeding colony) served as the corresponding controls. All of the animals were maintained under standard conditions with 12 hours on/off light cycle, commercial diet, and water ad libitum. GK rats destined for wounding were initially matched with regard to body weight (e.g., 230 to 250 g), and plasma levels of glucose, free fatty acids and insulin. These indices are commonly used to reflect the severity of the diabetic state.
(§2) Animals used for IGF-1 sensitivity (n=6/group) and wound healing (n=8) studies were partitioned into five study groups including control, diabetic, hypercortisolemic, diabetic+EUK and hypercortisolemic+EUK. The EUK-134 was administered for duration of four weeks before wound induction and it continued during the course of healing.

Data set [2] relates to Akt. Nature of the data set: Akt phosphorylation, western blotting in dermal fibroblasts. Format: cell-based, rat. Particulars: normal fibroblasts exposed to IGF-1; western blot. How it is done:
(§3) Primary dermal fibroblasts were obtained from dorsal skin of female Goto Kakizaki (GK, age 12-15 months) rats, a model for non-obese type 2 diabetes, and their Wistar control counterparts. After sterilization in povidine solution, rat skin was washed in sterile water and rinsed in 70% ethanol in PBS. Epidermis and dermis were separated following overnight incubation in 0.25% trypsine/EDTA at 4 C. Dermis was cut into small pieces and incubated in Dulbecco's modified Eagle medium (DMEM; Invitrogen) containing collagenase (250 U/ml; Sigma) for thirty min at 37 C in 5% CO2 with constant agitation. The sections were triturated vigorously to release fibroblasts, which were collected by centrifugation. […]
(§4) A hypercortisolemic state was mimicked by exposing control fibroblasts to dexamethasone (Dexa, Sigma) administered at 20 ng/ml every other day for a duration of 8 days. […] The concentration of IGF-1 (50 ng/ml, Peprotech) was determined by prior dose response experiment.
(§5) Levels/activities of key intracellular molecules in the IGF-1 signaling cascade including IRS-1, IRS-1 Tyr-p-612, PI3K-p85α, IRS-1 Ser-p (307), PI3K, Akt, p-Akt, INK and p-JNK were assessed using western blotting/immunoprecipitation and commercially available ELISA-based assays. […]

A further data set concerns IRS-1. Nature of the data set: IRS-1 Tyr612 phosphorylation, immunoprecipitation/western blotting in dermal fibroblasts. Format: cell-based, rat. On the procedure:
(§6) Primary dermal fibroblasts were obtained from dorsal skin of female Goto Kakizaki (GK, age 12-15 months) rats, a model for non-obese type 2 diabetes, and their Wistar control counterparts. After sterilization in povidine solution, rat skin was washed in sterile water and rinsed in 70% ethanol in PBS. Epidermis and dermis were separated following overnight incubation in 0.25% trypsine/EDTA at 4 C. Dermis was cut into small pieces and incubated in Dulbecco's modified Eagle medium (DMEM; Invitrogen) containing collagenase (250 U/ml; Sigma) for thirty min at 37 C in 5% CO2 with constant agitation. The sections were triturated vigorously to release fibroblasts, which were collected by centrifugation. The cell pellet was washed two times with PBS, re-suspended in complete medium (DMEM supplemented with 10% fetal calf serum, penicillin (100 U/ml), streptomycin (100 μg/ml)), 2 mM L-glutamine and 10 mM HEPES) and then cultured under a standard condition.
(§7) A hypercortisolemic state was mimicked by exposing control fibroblasts to dexamethasone (Dexa, Sigma) administered at 20 ng/ml every other day for a duration of 8 days. Similarly, the state of low-grade inflammation in fibroblasts was recapitulated experimentally by exposing these cells to TNF-α (4 ng/ml every day for 4 days). […] The concentration of IGF-1 (50 ng/ml, Peprotech) was determined by prior dose response experiment.
Levels/activities of key intracellular molecules in the IGF-1 signaling cascade including IRS-1, IRS-1 Tyr-p-612, PI3K-p85α, IRS-1 Ser-p (307), PI3K, Akt, p-Akt, INK and p-JNK were assessed using western blotting/immunoprecipitation and commercially available ELISA-based assays.
Ice-cold radioimmunoprecipitation assay (RIPA) buffer was used for the extraction of proteins from fibroblasts. Immunoprecipitation was achieved by incubating cell homogenates with anti-IRS-1 antibody overnight at 4° C. followed by the addition of protein A/G-Agarose for additional two hours. Immunoprecipitates were separated using spin-collection filters (Cytosignal), washed once with RIPA buffer/3× with PBS and then elutated by the addition of Laemmli buffer. […] Antigen-antibody complexes were visualized by an enhanced chemiluminescence system on BioMax Light Film (Kodack) and then the densitometry was analyzed using Quantity One 1-D image software (BioRad, GS 800). All densitometry data were corrected for equal loading using the house keeping gene β-actin and they were expressed as fold change vs. control.
Background: In western blotting, separated proteins are transferred to a membrane and probed.

Another data set concerns PI3K. In words: PI3K ELISA kinase assay on fibroblast lysates. Format: cell-based, rat. Particulars: fibroblasts exposed to IGF-1. How it is done: as §6, §4
PI3K activity was measured using PI3K ELISA (Echelon Biosciences Inc). […]
A general note: An ELISA detects its analyte on a solid surface through an enzyme-linked reagent.

The subject of data set [3] is Akt. In words: Akt phosphorylation, FACE cell-based ELISA in fixed fibroblasts. Details: species or system rat. The following applies: normal fibroblasts exposed to IGF-1. How it is done: as §3, §4
Activation of Akt and JNK was analyzed in fixed fibroblasts using FACE-Akt and FACE-JNK (both from Active Motife). […] Labeling with antibodies was conducted according to the manufacturer's protocol and the resulting phosphoantibody signal was calculated after correction for number of cells and total Akt or JNK levels in each sample. […]

Data set [4] is described as follows: Rapid insulin sensitivity test (RIST) with IGF-1 instead of insulin. It counts as in vivo, rat. On the procedure: as §1, §2
IGF-1 sensitivity in control, diabetic and hypercortisolemic animals was determined using the rapid insulin sensitivity test (RIST) with IGF-1 (200 μg/kg BW) infused instead of insulin. The RIST index is the amount of glucose per kg body weight required to maintain euglycemia following a bolus of insulin (50 mU/kg BW).

For data set [5] the following is noted: diabetic patients, cited from earlier work.
In the next data set the test system is PI3K-p85α / IRS-1. In words: Co-precipitation of PI3K p85α with IRS-1 in dermal fibroblasts. Format: cell-based, rat. The following applies: fibroblasts exposed to IGF-1. On the procedure: as §3, §4, §5
For data set [6], the system named is dermal fibroblasts. Nature of the data set: BrdU cell proliferation assay in fibroblasts. Format: cell-based, rat. On the procedure: as §6, §7
(§8) The proliferation and collagen synthesis of cultured fibroblasts were determined using, respectively the 5-bromo-2-deoxyuridine (BrdU) incorporation into DNA and a radiolabelled proline uptake assay.
Cells were seeded into 96-microtiter plates at a concentration of 1.5×10^4 and allowed to adhere overnight in DMEM supplemented with 10% FCS. After arrest by incubation in DMEM supplemented with 0.5% FCS for 24 hrs, cells were exposed to IGF-I (50 ng/ml) in DMEM containing […] 5-bromo-2-deoxyuridine (BrdUrd). Incorporation of BrdUrd into DNA was estimated using 5-bromo-2-deoxyuridine labeling and detection kit (Roche Applied Science) according to the manufacturer's instructions.

The subject of data set [7] is dermal fibroblasts. Nature of the data set: Radiolabelled proline uptake assay (collagen synthesis) in fibroblasts. The following applies: control fibroblasts, IGF-1. Format: cell-based, rat. How it is done:
as §3, §4, §8
A radiolabel proline uptake assay was used in the quantification of the rate of collagen synthesis in cultured fibroblasts derived from various experimental groups. […]

The subject of data set [8] is reactive oxygen species (ROS). Nature of the data set: ROS generation in cultured fibroblasts (DCF-DA). It counts as cell-based, rat. Particulars: fibroblasts with diabetic, inflammatory or hypercortisolemia phenotypes; ROS suppressors. On the procedure: as §6, §7
ROS generation in cultured fibroblasts was evaluated using dichloroflurescein-diacetate (DCF-DA, Molecular Probes), a probe that is oxidized to the fluorescent product DCF upon exposure to hydrogen peroxide, peroxynitrite, hydroxyl radical and nitric oxide. Its concentration serves as an indicator of the overall degree of intracellular oxidative stress.
Cells seeded in 96-well plates were incubated for thirty minutes at 37 C in serum free media containing 5 μM of DCF-DA. The plates were then washed twice with Krebs Ringer Buffer (KR) and the fluorescence readings were taken every 15 min for 1 hr at Ex=485 and Em=530. Subtracted background values were obtained from wells containing DCF-DA without cells. […]

For a further data set, the system named is excisional wounds. Nature of the data set: Full-thickness excisional wound healing, 7 days. It counts as in vivo, rat. The following applies: diabetic/hypercortisolemic rat wounds, antioxidant administered. How it is done:
as §1, §2
Animals derived from various experimental groups were anesthetized by ip, injection of 90 mg ketamine+10 mg xylazine/kg body weight, and their back skin was shaved, depilated with Nair and cleaned with 70% alcohol. Six bilateral full-thickness excisional wounds (8 mm in diameter) at equidistant from midline were created on the dorso-rostral back skin. Wounds were separated by a minimum of 1 cm of uninjured skin. […] The wound area was analyzed using Adobe PhotoShop (version 7.0; Adobe Systems) and the percentage of wound closure was derived by the following formula: (1−[current wound size/initial wound size])×100.

Where [9] appears, read: Wistar rats, dexamethasone 2.5 μg/kg sc twice daily (hypercortisolemia model).
The mark [10] stands for this setting: fibroblasts with diabetic, inflammatory or hypercortisolemia phenotypes, ROS suppressors.

For the molecule `C[C@@H]1C[C@H]2[C@@H]3CCC4=CC(=O)C=C[C@]4(C)[C@@]3(F)[C@@H](O)C[C@]2(C)[C@@]1(O)C(=O)CO` [Dexa, dexamethasone], in [1] (setting [9]), the “FBG (fasting blood glucose)” value turned out to be 78 ± 9 mg/dL, the “FFA (free fatty acid)” value turned out to be 706 ± 25 µM and the “FPI (fasting plasma insulin)” value was found to be 0.78 ± 0.061 ng/mL.

For IGF-1, the Akt phosphorylation entry in the data set on Akt [2] and with Akt [3] was “phosphorylated (activated)” each time. Further, in the data set on IRS-1 (control fibroblasts exposed to IGF-1 (50 ng/ml)), the “phosphorylation of Tyr612 on IRS-1” value is given as “induces rapid phosphorylation”. In the data set with PI3K, the PI3K enzymatic activity result is on record as “increases PI3K enzymatic activity”. For the same molecule, the “glucose metabolized in response to bolus injection of IGF-1 (RIST)” value in data set [4] (rats with diabetic complications or chemically-induced hypercortisolemia) was “about 125 mg glucose per kg body weight”; in data set [4] (untreated rats) it was 175 mg glucose per kg. In data set [5] (26 pmol continuous infusion), the “glucose metabolism response to IGF-1” value is “virtually no response”. Further, the “decrease of response to IGF-1 relative to healthy adults” value in data set [5] (52 pmol continuous infusion) was about 40%. The “PI3K activation (p85α co-precipitated with IRS-1)” value in the data set with PI3K-p85α / IRS-1 is recorded as “activates PI3K”. The “increase in BrdU incorporation compared with medium only control” value in the data set with dermal fibroblasts [6] (control fibroblasts, IGF-1 50 ng/ml, 24 hours) is given as about 5 fold. The “reduction of IGF-1 action in inducing DNA synthesis” value with dermal fibroblasts [6] (diabetic fibroblasts) was “about 46%”; in the data set with dermal fibroblasts [6] (hypercortisolemic fibroblasts), about 36%. Moreover, the “increase in collagen synthesis” value with dermal fibroblasts [7] is “about 63%”.

Take `O=C(O)CCCCC1CCSS1` (stereo not drawn) [α-lipoic acid]: the “common defect in IGF-1 signaling” value in the data set with IRS-1 (setting [10]) is “correct the common defect in IGF-1 signaling”. The “HSOS (oxidative stress)” value in data set [8] is on record as “lessen the HSOS”. In addition, in data set [4] (diabetic/hypercortisolemic rats, chronic administration of antioxidant), the “improvement of glucose metabolism in response to bolus injection of IGF-1” value was “about 20%”. For the same molecule, the “healing rates of wounds” value with excisional wounds is “statistically indistinguishable from control rat wounds treated with IGF-1 alone”. In addition, the “impairment in key fibroblast functions (collagen synthesis, cell proliferation, migration, contraction)” value in the data set on dermal fibroblasts [6] (setting [10]) is given as “ameliorates”. Besides, the “abnormalities regarding lipid and carbohydrate profiles” value in [1] (diabetic and hypercortisolemic rats, chronic treatment with ROS suppressors) is recorded as “ameliorated”.

The record behind these values is patent US8637461B2, “Method of diagnosing and treating oxidative stress-impaired wound healing” (Kuwait University, priority 2011, dated 2014).
